The text below walks through data of BindingDB's records for doi:10.1111/j.1476-5381.1995.tb15923.x (Zeneca Pharmaceuticals, 1995).

This assay addresses Adenosine receptor A2a (Rattus norvegicus, UniProt P30543).

Broadly, the Ki is the equilibrium dissociation constant of an inhibitor or competing ligand from its target. The low end stands for tighter binding, the high end for weaker binding.

Adenosine receptor A2a, sequence (P30543 whole entry): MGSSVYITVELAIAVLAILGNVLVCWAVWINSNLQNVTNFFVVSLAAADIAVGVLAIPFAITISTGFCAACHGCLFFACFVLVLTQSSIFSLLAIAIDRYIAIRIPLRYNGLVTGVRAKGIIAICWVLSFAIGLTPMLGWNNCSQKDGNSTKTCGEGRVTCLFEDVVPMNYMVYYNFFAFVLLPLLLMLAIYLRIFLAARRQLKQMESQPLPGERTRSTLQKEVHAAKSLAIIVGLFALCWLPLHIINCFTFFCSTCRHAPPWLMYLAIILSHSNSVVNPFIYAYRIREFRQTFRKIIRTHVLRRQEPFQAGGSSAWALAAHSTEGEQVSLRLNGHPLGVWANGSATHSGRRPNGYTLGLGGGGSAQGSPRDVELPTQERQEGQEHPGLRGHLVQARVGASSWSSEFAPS

In the case of `Cn1c(=O)c2[nH]c(-c3ccccc3)nc2n(C)c1=O` [1,3-Dimethyl-8-phenyl-3,9-dihydro-purine-2,6-dione], the Ki was over 10 µM. Next, `Cn1c(=O)c2[nH]c(-c3ccc(S(=O)(=O)O)cc3)nc2n(C)c1=O` [4-(1,3-Dimethyl-2,6-dioxo-2,3,6,7-tetrahydro-1H-purin-8-yl)-benzenesulfonic acid]: over 10 µM.
